Entries after “also recorded” stand apart in the source; their conditions may differ. Like-named read-outs stand apart in the source and are kept apart here.
Tests used:
MucilAir™-HF tissues [1] = test: Mucin-5AC (Muc5AC) immunohistochemistry, goblet cells, MucilAir-HF model; type: cell-based, human; conditions: for % of Muc5AC area: average ± standard deviation
Description: (§1) Tissues were handled as recommended by manufacturer’s instruction.
The presence of goblet cells was assessed through immunohistochemistry analysis for mucin-5AC protein (Muc5AC) detection. IL-13 and cytomix were used as positive controls (see item 2.5.2 for additional details). On last day of experiment (day 12), cultures (n = 3 tissues/group) were rinsed in PBS and fixed by immersion in 4% formaldehyde for 20 min. Fixed tissues were embedded into paraffin, sectioned, and processed for staining on paraffin sections. The immunostaining of the sections was performed with the Benchmark automated platform (Ventana-Roche, Hoffmann-La Roche Ltd, Basel, Switzerland) and the Autostainer Link 48 (Agilent, Santa Clara, CA. United States) with the detection kit Ultraview DAB (DAB chromogeny, Hoffmann-La Roche Ltd). Sections were pre-treated using heat mediated antigen retrieval with sodium citrate buffer, pH 6, for 20 min. The section was then incubated with recombinant anti-mucin 5AC antibody (ab3649, Abcam) for 1 h at room temperature, followed by biotinylated secondary antibody (Dako) and HRP detection (HRP conjugated ABC system, Vector Laboratories), according to manufacturer’s instruction. The section was then counterstained with hematoxylin (Sigma-Aldrich) and mounted with DPX, a synthetic non-aqueous mounting medium for microscopy. Digital images of the slides were then acquired, and quantitative image analysis performed using Image Pro Plus 6.2 (Media Cybernetics) to quantify the goblet cells on a section. The whole images of stained sections were scanned, and an average 15 images/section were analysed. The results are the ratio between the mucin 5AC stained area and the total surface area of the epithelium on the section.

[2] = tested on: airway epithelial cell lines; design: method as in Nilsson et al., 2010; conditions: 40 µM for 60 min, corrected and normal cell lines; ref Nilsson et al., 2010; cited from earlier work
[3] = tested on: cystic fibrosis phenotype cells; design: method as in Perez et al., 2007; conditions: 20 µM for 3-5 days; ref Perez et al., 2007; cited from earlier work
MucilAir™-HF tissues [4] = test: Cilia beating frequency (CBF) analysis, MucilAir-HF model
Description: The MucilAir™-HF system (EP11MD) and ready-to-use chemically-defined, serum-free culture medium (EP04AM) were obtained from Epithelix Sàrl (Geneva, Switzerland). Tissues were handled as recommended by manufacturer’s instruction. […] After differentiation for 42 up to 81 days at the air-liquid interface (ALI) under standard culture conditions (37°C ± 1°C in a humidified atmosphere of 5% ± 1% CO2 in air), tissues were washed 3 days before first exposure and each insert was inspected for beating cilia and mucus production. This washing step (one or twice with PBS) were performed to remove accumulated mucus and cell debris to minimize the risk of interference with the toxicity tests. Over 12-day experimental period, washing steps as well as media changes was performed every 2-3 days.
For toxicity testing performed over a 12-day experimental period, tissues were daily exposed to 3 different concentrations of each test material for 30 min or 6 h (for detailed information on each material see Table 1). […] Tissues were exposed by test materials via nebulization, liquid apical application, or liquid basal application. These differences in the exposure type were due to solubility of the test material, route of exposure (inhaled or systemic), or comparison with previous publications. […]

[5] = tested on: primary human nasal epithelial cells; design: method as in Uchenna Agu et al., 1999; conditions: ref Uchenna Agu et al., 1999, cited from earlier work
[6] = tested on: HBE16 airway epithelial cells; conditions: 20 μM for 12h; ref Li et al., 2010; cited from earlier work
[7] = tested on: A549 human lung adenocarcinoma cell line; conditions: 0.1-5 µM for 3h; ref Guo et al., 2012; cited from earlier work
[8] = tested on: EpiAirway-100 human upper respiratory tract epithelium model; conditions: 25-125 mM for 24h; ref Balharry et al., 2008; cited from earlier work
[9] = tested on: RLE-6TN rat lung epithelial cells; conditions: 0.5 µM; ref Jiao et al., 2017; cited from earlier work
[10] = tested on: monocyte-derived macrophages (MDMs); conditions: 20 µM; ref Zeng et al., 2021; cited from earlier work
EpiAlveolar™ tissues = test: Histology and immunohistochemistry, EpiAlveolar model, Laboratory 2; conditions: Laboratory 2, 12-day period
Description: To evaluate the quality of EpiAlveolar™ tissues over the 12-day experimental period, histological and immunohistochemistry assessments for detection of pan-cytokeratin, vimentin, aquaporin 5, pro-surfactant C, CD68, caspase-3, and/or αSMA were performed by Laboratories 1 and 2.
Tissues were kept in 10% phosphate buffered formalin at 4°C for up to 48 h. Samples were then fixed in 70% ethanol and two strips of membrane were trimmed from each sample, processed, and paraffin-embedded to be cut at 5 µm thick sections and mounted to glass slides. The slides were then dewaxed in xylene, hydrated using graded industrial methylated spirit (70-100%) and stained with H&E for light microscope analysis.
For immunohistochemistry analysis, tissue sections-containing microscope slides were obtained and processed using a Discovery Ultra Staining System (Roche), according to manufacturer’s instructions, except for anti-CD68 staining that was manually performed. The slides were incubated at 60°C for 8 min and then deparaffinized at 69°C for 24 min. After that, slides were incubated with inhibitor CM or peroxidase blocking solution (for anti-CD68 staining) for 8 min at room temperature. The slides were then incubated at room temperature with the following primary monoclonal antibodies, following manufacturer’s instructions: anti-α smooth muscle actin (αSMA) at 1:500 (Leica Microsystems Ltd), anti-CD68 at 1:3000 for macrophages (11192-T24, Sino Biological), anti-pro-surfactant C protein at 1:1000 (AB3786, Sigma-Aldrich), anti-caspase-3 at 1:10000 (AB4051, Abcam), anti-aquaporin 5 (31661, Invitrogen), anti-pan-cytokeratin for epithelial cells (760-2595, Roche), and anti-vimentin for mesenchymal cells (790-2917, Roche). […]
A board-certified pathologist evaluated the changes (epithelial thinning, separation/detachment areas, necrosis, collagen, and presence of apoptotic cells, myofibroblasts, and type II pneumocytes) using a semi-quantitative scoring system (Table 2).

[11] = tested on: cultured alveolar macrophages and epithelial cells; design: method as in JOUNEAU et al., 2011; conditions: 10 µg/mL for 48h, bacteria strain not specified; ref JOUNEAU et al., 2011; cited from earlier work
MucilAir™-HF tissues [12] = test: Cytokine and chemokine measurements (Luminex), MucilAir-HF model; type: cell-based, human; conditions: MucilAir-HF
Description: as §1
Basolateral medium samples of the tissue cultures were collected and stored at −80°C until analysis. The following cytokines/chemokines were quantified using customized Human Luminex® Discovery Assay kits (R&D Systems): chemokine (C-C motif) ligand (CCL) 2, CCL7, CCL26, C-X-C motif chemokine ligand (CXCL) 10, CXCL11, intercellular adhesion molecule-1 (ICAM-1), IL-1α, IL-6, IL-8, matrix metalloproteinase (MMP)-1, MMP-2, MMP-3, MMP-7, MMP-9, osteopontin, interferon (IFN)-γ, IL-1 receptor antagonist (IL-1Ra), urokinase-type plasminogen activator receptor (uPAR), tumour necrosis factor (TNF)-α, urokinase (uPA), serpin E1, tissue inhibitor of metalloproteinase 1 (TIMP-1), and TGF-β1. Samples were measured in technical triplicates according to the manufacturer’s recommendation using a Luminex Bio-Plex® 200 RUO System ([…]).

[13] = tested on: primary human bronchial epithelial cells; design: method as in Wu et al., 2010; conditions: 1 μg/mL for 24h, bacteria strain not specified; ref Wu et al., 2010; cited from earlier work
[14] = 30 min/day exposure, day 12, High 1 concentration (third of the tested concentrations)
[15] = 30 min/day exposure, day 12, Low concentration (first of the tested concentrations)
[16] = 30 min/day exposure, day 12, Medium concentration (second of the tested concentrations)
[17] = 6 h/day exposure, day 12, single tested concentration

O=C(O)c1ccc(/C=C2\SC(=S)N(c3cccc(C(F)(F)F)c3)C2=O)cc1 [CFTRinh-172]
Changes in Muc5AC protein expression (in words) (MucilAir™-HF tissues [1]): not able to promote any changes; also recorded: did not induce expected increase in mucin secretion or Muc5AC protein expression
% of Muc5AC area (MucilAir™-HF tissues [1]; [14]): 6.93 ± 0.51%
% of Muc5AC area (MucilAir™-HF tissues [1]; [15]): 7.15 ± 1.06%
% of Muc5AC area (MucilAir™-HF tissues [1]; [16]): 11.01 ± 0.81%
TEER values [2]: time-dependent increase in TEER values
GM-CSF, IL-6 and/or IL-8 secretion levels [3]: no changes in granulocyte/macrophage colony-stimulating factor, IL-6 and/or IL-8 secretion levels

Cc1cc(O)ccc1Cl [Chlorocresol, 4-Chloro-3-methylphenol]
Tissue functionality (CBF, MCC, mucin secretion) change (in words) (MucilAir™-HF tissues [4]): not able to induce changes in tissue functionality (e.g. reduced CBF)
CBF ([5]; 0.005% w/ v for 1-20 min): reversible cilio-inhibitory effects by significantly decreasing CBF
CBF ([5]; 0.1% w/v): instantaneous and irreversible ciliostasis
% of Muc5AC area (MucilAir™-HF tissues [1]; [14]): 6.95 ± 0.30%
% of Muc5AC area (MucilAir™-HF tissues [1]; [15]): 14.47 ± 0.87%
% of Muc5AC area (MucilAir™-HF tissues [1]; [16]): 8.85 ± 1.77%

CN1CCC[C@H]1c1cccnc1 [Nicotine]
% of Muc5AC area (MucilAir™-HF tissues [1]; [14]): 5.94 ± 1.90%
% of Muc5AC area (MucilAir™-HF tissues [1]; [15]): 0.89 ± 0.62%
% of Muc5AC area (MucilAir™-HF tissues [1]; [16]): 3.91 ±0.79%
TNF-α, IL-8, IL-6 and MUC5AC supernatant protein and mRNA levels [6]: did not trigger changes in TNF-α, IL-8, IL-6 and MUC5AC supernatant protein and mRNA levels
Cytotoxicity (LDH release) [7]: did not trigger cytotoxicity
TEER values (integrity of the epithelial membrane) [8]: biphasic response with a large and significant increase of TEER values at low concentrations followed by a steady decrease at higher concentrations

C[S+]([O-])CCCCN=C=S (stereo not drawn) [Sulforaphane, R,S-Sulforaphane]
Protection from cigarette smoke extract-induced oxidative damage [9]: protect from cigarette smoke extract-induced oxidative damage
% of Muc5AC area (MucilAir™-HF tissues [1]; [14]): 5.04 ± 0.71%
% of Muc5AC area (MucilAir™-HF tissues [1]; [15]): 3.74 ± 0.71%
% of Muc5AC area (MucilAir™-HF tissues [1]; [16]): 9.38 ± 0.80%
% of Muc5AC area (MucilAir™-HF tissues [1]; [17]): 2.55 ± 0.62%
Anti-inflammatory activity [10]: anti-inflammatory activity by suppressing the expression of Toll-like receptors (TLR2 and TLR4)

Lipopolysaccharide from Pseudomonas aeruginosa 10 [LPS]
Histological changes compared to vehicle and control groups (in words) (EpiAlveolar™ tissues): changes were not observed
MMP-9 supernatant levels and mRNA transcripts [11]: significant increase in MMP-9 supernatant levels and mRNA transcripts
% of Muc5AC area (MucilAir™-HF tissues [1]; [14]): 4.28 ± 0.76%
% of Muc5AC area (MucilAir™-HF tissues [1]; [15]): 2.87 ± 0.77%
% of Muc5AC area (MucilAir™-HF tissues [1]; [16]): 4.30 ± 0.90%
% of Muc5AC area (MucilAir™-HF tissues [1]; [17]): 1.58 ± 0.40%
Cytokines/chemokines modulated (in words) (MucilAir™-HF tissues [12]; 30 min/day exposure): did not promote modulation of the different cytokines/chemokines
Cytokines/chemokines modulated (in words) (MucilAir™-HF tissues [12]; 6 h/day exposure): increased levels of proteins involved in the inflammatory response (e.g., IL-6, IL-8, and TNF-α) and degradation of extracellular matrix/fibrosis (e.g., MMP-3 and uPAR)
IL-6 and IL-8 protein and mRNA transcripts levels [13]: significant increase of IL-6 and IL-8 protein and mRNA transcripts levels

Source: article PMC11885506, “Evaluation of a non-animal toolbox informed by adverse outcome pathways for human inhalation safety” (Frontiers in Toxicology, 2025)
